Our source for the pest or weed control and plant injury values is patent publication US10485235B2, “Aryloxypyrimidinyl ethers as herbicides” (FMC Corporation, priority 2015, dated 2019).

Holding throughout (format): in vivo
The test system of test [1] is ryegrass, Italian (Italian ryegrass, Lolium multiflorum). Briefly: Test A preemergence, Italian ryegrass. The settings on record: Lolium multiflorum, pre-emergence, 240 h, Preemergence, 0 to 100 scale (0 no effect, 100 complete control), read-out: Plant response rating, Ryegrass, Italian; for pest or weed control at 31 g/ha: 31 g ai/ha; for pest or weed control at 125 g/ha: 125 g ai/ha. Put shortly: (§1)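 Visual injury rating versus untreated controls on a 0 to 100 scale (0 = no effect, 100 = complete control), taken about 10 days after treatment in the greenhouse. Preemergence: directed soil spray over seeded loam–sand. Postemergence: spray on one- to two-leaf plants, 2 to 10 cm tall.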

Test [2] concerns blackgrass (Alopecurus myosuroides). In words: Test A postemergence, blackgrass. The settings on record: Alopecurus myosuroides, post-emergence, 240 h, postemergence, 0 to 100 scale, 0 is no effect, 100 is complete control, approximately 10 days, read-out: Plant response rating, Blackgrass; for pest or weed control at 31 g/ha: 31 g ai/ha; for pest or weed control at 125 g/ha: 125 g ai/ha. Put shortly:
as §1

Test [3] relates to wheat (Triticum aestivum). Briefly: Test A postemergence, wheat. The settings on record: Triticum aestivum, post-emergence, 240 h, postemergence, 0 to 100 scale, 0 is no effect, 100 is complete control, approximately 10 days, read-out: Plant response rating, Wheat; for plant injury at 31 g/ha: 31 g ai/ha; for plant injury at 125 g/ha: 125 g ai/ha. Put shortly:
as §1

In test [4] the test system is foxtail, giant (giant foxtail, Setaria faberii). In words: Test A preemergence, giant foxtail. The settings on record: Setaria faberi, pre-emergence, 240 h, Preemergence, 0 to 100 scale (0 no effect, 100 complete control), read-out: Plant response rating, Foxtail, Giant; for pest or weed control at 31 g/ha: 31 g ai/ha; for pest or weed control at 125 g/ha: 125 g ai/ha. Put shortly:
as §1

Test [5] deals with kochia (Kochia scoparia). Briefly: Test A postemergence, kochia. As to conditions: Bassia scoparia, post-emergence, 240 h, postemergence, 0 to 100 scale, 0 is no effect, 100 is complete control, approximately 10 days, read-out: Plant response rating, Kochia; for pest or weed control at 31 g/ha: 31 g ai/ha; for pest or weed control at 125 g/ha: 125 g ai/ha. Put shortly:
as §1

Test [6] concerns kochia (Kochia scoparia). In words: Test A preemergence, kochia. As to conditions: Bassia scoparia, pre-emergence, 240 h, Preemergence, 0 to 100 scale (0 no effect, 100 complete control), read-out: Plant response rating, Kochia; for pest or weed control at 31 g/ha: 31 g ai/ha; for pest or weed control at 125 g/ha: 125 g ai/ha. Put shortly: as §1
The test system of test [7] is ryegrass, Italian (Italian ryegrass, Lolium multiflorum). Briefly: Test A postemergence, Italian ryegrass. The settings on record: Lolium multiflorum, post-emergence, 240 h, postemergence, 0 to 100 scale, 0 is no effect, 100 is complete control, approximately 10 days, read-out: Plant response rating, Ryegrass, Italian; for pest or weed control at 31 g/ha: 31 g ai/ha; for pest or weed control at 125 g/ha: 125 g ai/ha. Put shortly:
as §1

Test [8] concerns galium (catchweed bedstraw, Galium aparine). Briefly: Test A postemergence, galium. As to conditions: Galium, post-emergence, 240 h, postemergence, 0 to 100 scale, 0 is no effect, 100 is complete control, approximately 10 days, read-out: Plant response rating, Galium; for pest or weed control at 31 g/ha: 31 g ai/ha; for pest or weed control at 125 g/ha: 125 g ai/ha. Put shortly:
as §1

The subject of test [9] is foxtail, giant (giant foxtail, Setaria faberii). In words: Test A postemergence, giant foxtail. The settings on record: Setaria faberi, post-emergence, 240 h, postemergence, 0 to 100 scale, 0 is no effect, 100 is complete control, approximately 10 days, read-out: Plant response rating, Foxtail, Giant; for pest or weed control at 31 g/ha: 31 g ai/ha; for pest or weed control at 125 g/ha: 125 g ai/ha. Put shortly:
as §1

For test [10], the system named is pigweed (Amaranthus retroflexus). In words: Test A postemergence, pigweed. As to conditions: Amaranthus retroflexus, post-emergence, 240 h, postemergence, 0 to 100 scale, 0 is no effect, 100 is complete control, approximately 10 days, read-out: Plant response rating, Pigweed; for pest or weed control at 31 g/ha: 31 g ai/ha; for pest or weed control at 125 g/ha: 125 g ai/ha. Put shortly:
as §1

For test [11] the test system is unchanged. In words: Test A preemergence, pigweed. The settings on record: Amaranthus retroflexus, pre-emergence, 240 h, Preemergence, 0 to 100 scale (0 no effect, 100 complete control), read-out: Plant response rating, Pigweed; for pest or weed control at 31 g/ha: 31 g ai/ha; for pest or weed control at 125 g/ha: 125 g ai/ha. Put shortly:
as §1

The test system of test [12] is rice (Oryza sativa). In words: Test B flooded paddy test, rice. As to conditions: Oryza sativa; 250 g ai/ha, Flood; visual rating after 13 to 15 days; scale 0 to 100, 0 is no effect, 100 is complete control; read-out: Plant response rating, Rice. Put shortly: (§2)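 2-leaf plants; flood to 3 cm, dose into water, hold depth; greenhouse 13–15 d; visual score 0–100 vs controls; dash = not tested.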

Test [13] has as its system barnyardgrass (Echinochloa crus-galli). In words: Test B flooded paddy test, barnyardgrass. As to conditions: Echinochloa crus-galli; 250 g ai/ha, Flood; visual rating after 13 to 15 days; scale 0 to 100, 0 is no effect, 100 is complete control; read-out: Plant response rating, Barnyardgrass. Put shortly:
as §2

Test [14] relates to sedge, umbrella (small-flower umbrella sedge, Cyperus difformis). In words: Test B flooded paddy test, umbrella sedge. As to conditions: Cyperus difformis; 250 g ai/ha, Flood; visual rating after 13 to 15 days; scale 0 to 100, 0 is no effect, 100 is complete control; read-out: Plant response rating, Sedge, Umbrella. Put shortly: as §2

On to `N#Cc1cccc(Oc2ncc(Cl)cn2)c1OCC(F)(F)F` [Compound 1], for which the pest or weed control at 31 g/ha in test [1] is 0%; in [2] it was 0%; in test [4], 60%; in test [5] it was 60%; in test [6], 60%; in test [7], 0%. The pest or weed control at 31 g/ha in test [8] came out at 10%; in test [9], 10%; in test [10], 60%; in test [11], 100%. In addition, the pest or weed control at 125 g/ha in test [1] is 10%; in test [2] it was 20%; in [4], 100%; in test [5], 80%; in test [6] it was 100%; in test [7] it was 0%. The pest or weed control at 125 g/ha was found to be 40% in test [8], 20% in test [9], 90% in test [10] and 100% in test [11]. Moreover, the plant injury at 31 g/ha in test [3] is 0%. The plant injury at 125 g/ha in [3] stood at 0%.

Take `N#Cc1cccc(Oc2ncc(F)cn2)c1OCCCC(F)(F)F` [Compound 4, 3-[(5-fluoro-2-pyrimidinyl)oxy]-2-(4,4,4-trifluorobutoxy)benzonitrile]: in test [12], the plant injury at 250 g/ha was 30%. The pest or weed control at 31 g/ha amounted to 10% in [1]; 40% in test [2]; 100% in test [4]; 90% in test [5]; 40% in test [6]; 0% in test [7]. For the same molecule, the pest or weed control at 31 g/ha amounted to 50% in [8], 70% in test [9], 100% in test [10] and 90% in test [11]. Also, the pest or weed control at 125 g/ha in test [1] stood at 60%; in test [2], 90%; in test [4], 100%; in test [5] it was 100%; in test [6] it was 90%; in test [7], 40%. For the same molecule, the pest or weed control at 125 g/ha stood at 90% in [8], 100% in test [9], 100% in [10] and 100% in test [11]. The pest or weed control at 250 g/ha came out at 50% in [13] and 95% in test [14]. For the same molecule, in test [3], the plant injury at 31 g/ha is 20%. Further, the plant injury at 125 g/ha in [3] amounted to 20%.

With `N#Cc1cccc(Oc2ncc(Cl)cn2)c1OCCCC(F)(F)F` [Compound 5, 3-[(5-chloro-2-pyrimidinyl)oxy]-2-(4,4,4-trifluorobutoxy)benzonitrile], the plant injury at 250 g/ha in test [12] amounted to 40%. For the same molecule, the pest or weed control at 31 g/ha was found to be 20% in test [1]; 30% in test [2]; 100% in test [4]; 100% in test [5]; 90% in test [6]; 20% in test [7]. The pest or weed control at 31 g/ha in test [8] is 80%; in [9] it was 60%; in test [10], 100%; in test [11] it was 90%. Also, the pest or weed control at 125 g/ha came out at 60% in test [1]; 90% in [2]; 100% in test [4]; 100% in test [5]; 100% in [6]; 40% in test [7]. Further, the pest or weed control at 125 g/ha in test [8] turned out to be 100%; in [9], 100%; in test [10] it was 100%; in [11], 90%. Besides, the figures for the pest or weed control at 250 g/ha in [13] and in test [14] were 50% and 95%, respectively. Besides, the plant injury at 31 g/ha in [3] was found to be 20%. For the same molecule, the plant injury at 125 g/ha in test [3] was 40%.

As for `N#Cc1cccc(Oc2ncc(F)cn2)c1OCC(F)(F)F` [Compound 41], the pest or weed control at 31 g/ha in test [1] turned out to be 0%; in test [2] it was 0%; in test [4], 20%; in [5], 30%; in test [6], 50%; in test [7], 0%. For the same molecule, the pest or weed control at 31 g/ha in test [8] was found to be 10%; in test [9] it was 0%; in test [10] it was 30%; in test [11], 100%. Besides, the pest or weed control at 125 g/ha is 10% in test [1]; 10% in test [2]; 80% in test [4]; 60% in test [5]; 100% in [6]; 10% in [7]. The pest or weed control at 125 g/ha in [8] amounted to 20%; in test [9] it was 0%; in [10] it was 70%; in test [11], 100%. Further, in [3], the plant injury at 31 g/ha turned out to be 0%. Further, the plant injury at 125 g/ha in test [3] worked out at 0%.
